“Also recorded” adds a separate entry of the source.
Assays:
[1] = tested on: human dermal Microvascular endothelial cells; test: Inhibition of bFGF-stimulated growth of human microvascular endothelial cells; type: cell-based; settings: Homo sapiens, Endothelial cell; bFGF-stimulated; estimated from dose response curve
Protocol: Inhibition of cell growth was evaluated by measuring total protein and total DNA and the IC50 was estimated for each dose response curve.

[2] = tested on: tyrosine specific phosphorylation of cellular proteins; settings: Ghosh and Miller, 1993; cited from earlier work
PKC type I-III = settings: Mahoney et al., 1990; read-out: ID50, PKC type I-III activity; cited from earlier work
[3] = tested on: MCF-7 human breast cancer cells; settings: 48 hr (Foekens et al., 1993); cited from earlier work
HMEC-1 = HMEC-1 cell growth, total protein and total DNA; type: cell-based, human
Protocol: Logarithmically growing HMEC-1 or HMVEC-d cells are seeded at 2×10^4 cells/well in six well plates (Falcon) containing 2 ml of MCDB-131 medium supplemented with 5% fetal bovine serum (FBS) (Hyclone). […] After removal of medium, the cell layer is washed twice with 1 ml of cold Hanks balanced salt solution and the cells are dislodged by trypsinization. The cells are collected in microcentrifuge tubes and washed twice with 1 ml of cold phosphate-buffered saline, and then 1 ml of cold 10% trichloroacetic acid are added. Acid precipitable radioactivity are collected on a glass fiber filter (Whatman Grade GF/C) and the radioactivity is determined in a liquid scintillation spectrometer (Packard).

prostate carcinoma cells = settings: after 24 hr exposure (Qiao et al., 1994); cited from earlier work
[4] = tested on: human microvascular endothelial cells; test: Detachment / toxicity of cultured human microvascular endothelial cells; type: cell-based
[5] = tested on: bFGF binding sites of human microvascular endothelial cells; test: I125 bFGF binding to human microvascular endothelial cells; settings: for percentage of inhibition of I125 bFGF binding: low and high affinity binding sites
From the text: However, for the same concentrations of the phosphonic acid agents, the inhibition of growth factor binding was always less than 5% in relation to the control.
However, for the same concentrations of phosphonic acid agents, the inhibition of growth factor binding was always less than 5% in relation to the control.

[6] = tested on: binding of growth factors to their receptors; settings: intact cells; cited from earlier work
[7] = tested on: human dermal microvascular and porcine pulmonary artery endothelial cells; test: bFGF-stimulated and non-stimulated endothelial cell growth (total protein, total DNA); type: cell-based; settings: suramin 210 μM
From the text: Suramin is a highly charged molecule with six sulfonate groups that are ionized at physiologic pH.

In the case of `Cc1ccc(C(=O)Nc2ccc(S(=O)(=O)O)c3cc(S(=O)(=O)O)cc(S(=O)(=O)O)c23)cc1NC(=O)c1cccc(NC(=O)Nc2cccc(C(=O)Nc3cc(C(=O)Nc4ccc(S(=O)(=O)O)c5cc(S(=O)(=O)O)cc(S(=O)(=O)O)c45)ccc3C)c2)c1` [suramin], the IC50 [1] is listed as 437 µM, the “effect on tyrosine specific phosphorylation” value [2] is listed as “increase the global tyrosine specific phosphorylation of cellular proteins in vivo” and the IC50 (PKC type I-III) is listed as 50 µM. For the same molecule, the “effect on cell cycle” value [3] was “accumulation of MCF-7 human breast cancer cells in the G2-M phase of the cell cycle”, the “effect on cell growth” value (HMEC-1; 50-100 μg/ml) was “stimulatory effect on cell growth” and the “effect on total protein and total DNA” value (HMEC-1; suramin higher than 250 μg/ml, agents lower concentrations) was “significant dose-related reduction in total protein and total DNA”. The “effect on HMEC-1 cell growth” value (HMEC-1; up to 100 μg/ml) was “did not have any significant inhibitory effect”, the “effect on cell cycle” value (prostate carcinoma cells) was “slowly arrested in the G1 phase” and the floating cells ([4]; 24 hr of treatment) was “a large number of floating cells”. For the same molecule, the “time for detection of suramin toxicity on endothelial cells” value ([4]; concentrations higher than 200 μM) was over 12 h, the “percentage of inhibition of I125 bFGF binding” value ([5]; 25 μM) was 9% and the “percentage of inhibition of I125 bFGF binding” value ([5]; 70 μM) was 96%. For the same molecule, the “effect on bFGF binding, in words” value ([5]; same molar concentrations as suramin) was “inhibited I^125 bFGF binding in a dose-related manner”, the “effect on binding of growth factors to their receptors” value [6] was “able to disrupt the binding of growth factors to their receptors in intact cells” and the “effect on bFGF stimulation of endothelial cell growth” value [7] was “inhibited the stimulatory effect of bFGF; also recorded: inhibited the growth factor stimulatory effect”.

Reference: US6160166A, “Phosphonated agents and their antiangiogenic and antitumorigenic use” (priority 1999, dated 2000)
